Test [1] deals with TNFα release from human peripheral blood mononuclear cells. The test can be described thus: Inhibition of LPS-stimulated TNFα release from human peripheral blood mononuclear cells (TNFα screen, ELISA). It is filed as cell-based. Conditions: human PBMC, 18 hours incubation, TNFα in supernatant by ELISA. As to the method:
Venous blood is collected from healthy volunteers and the mononuclear cells purified by centrifugation through Histopaque (Ficoll) cushions. TNFα production from these cells is stimulated by addition of lipopolysaccharide. After 18 hours incubation in the presence of LPS, the cell supernatant is removed and the concentration of TNFα in the supernatant determined by ELISA.
On the technique in general: ELISA stands for enzyme-linked immunosorbent assay.

The next test concerns PDE4. As to the kind of experiment: PDE4 inhibition: hydrolysis of tritium labelled cAMP to AMP, SPA bead scintillation counting. It is filed as biochemical. Conditions: 50% reduction in counts compared to PDE4 only control wells. As to the method:
The PDE4 inhibitory activity of the nicotinamide derivatives of the formula (I) is determined by the ability of compounds to inhibit the hydrolysis of cAMP to AMP by PDE4 (Thompson J W, Teraski W L, Epstein P M, Strada S J., “Assay of nucleotidephosphodiesterase and resolution of multiple molecular forms of the isoenzyme”, Advances in cyclic nucleotides research, edited by Brooker G, Greengard P, Robinson G A. Raven Press, New York 1979, 10, p. 69-92). Tritium labelled cAMP is incubated with PDE4. Following incubation, the radiolabelled AMP produced is able to bind yttrium silicate SPA beads. These SPA beads subsequently produce light that can be quantified by scintillation counting. The addition of a PDE4 inhibitor prevents the formation of AMP from cAMP and counts are diminished. The IC50 of a PDE4 inhibitor can be defined as the concentration of a compound that leads to a 50% reduction in counts compared to the PDE4 only (no inhibitor) control wells.

In general, IC50 refers to the point on the concentration scale where inhibition reaches its midpoint.

On to `COc1cc(O)ccc1C(=O)N[C@H]1CC[C@@H](NC(=O)c2cc(F)cnc2OC2CCSCC2)CC1` [Example 1], for which, in test [1], the IC50 is 700 pM.

On to `COc1ccc2cccnc2c1S(=O)(=O)N[C@H]1CC[C@@H](NC(=O)c2cc(F)cnc2OC2CCSCC2)CC1` [Example 28, Syn-5-Fluoro-N-[4-(7-methoxy-quinoline-8-sulfonylamino)-cyclohexyl]-2-(tetrahydro-thiopyran-4-yloxy)-nicotinamide], for which, in test [1], the IC50 came to 200 pM. `Cc1cnc(OC2CCSCC2)c(C(=O)N[C@H]2CC[C@@H](NC(=O)c3ccccc3OCCO)CC2)c1` [Example 13, Syn-N-{4-[2-(2-Hydroxy-ethoxy)-benzoylamino]-cyclohexyl}-5-methyl-2-(tetrahydro-thiopyran-4-yloxy)-nicotinamide]: the IC50 in test [1] was determined as 4000 pM. With `Cc1ccc(OCCO)c(C(=O)N[C@H]2CC[C@@H](NC(=O)c3cc(F)cnc3OC3CCSCC3)CC2)c1` [Example 5], the IC50 in test [1] stood at 20 pM; in the test on PDE4, 1000 pM. Regarding `Cc1ccc(C(=O)N[C@H]2CC[C@@H](NC(=O)c3cc(F)cnc3OC3CCSCC3)CC2)c(OCCO)c1` [Example 10], the IC50 was 40 pM in test [1] and 5000 pM in the test on PDE4.

The molecule `O=C(N[C@H]1CC[C@@H](NC(=O)c2cc(F)cnc2OC2CCSCC2)CC1)c1ccc(O)cc1OCC1CC1` [Example 23] yielded an IC50 in test [1] of 200 pM. On to `Cc1cccc(C(=O)N[C@H]2CC[C@@H](NC(=O)c3cc(F)cnc3OC3CCSCC3)CC2)c1OCCO` [Example 9], for which the IC50 in test [1] came out at 100 pM; in the test on PDE4 it was 2800 pM. Regarding `O=C(N[C@H]1CC[C@@H](NC(=O)c2cc(F)cnc2OC2CCSCC2)CC1)c1ccccc1OCCCO` [Example 14, Syn-5-Fluoro-N-{4-[2-(3-hydroxy-propoxy)-benzoylamino]-cyclohexyl}-2-(tetrahydro-thiopyran-4-yloxy)-nicotinamide], half-maximal inhibition in test [1] (IC50) was put at 100 pM.

For the molecule `COc1ccc2cccnc2c1S(=O)(=O)N[C@H]1CC[C@@H](NC(=O)c2cccnc2OC2CCSCC2)CC1` [Example 29, Syn-N-[4-(7-methoxy-quinoline-8-sulfonylamino)-cyclohexyl]-2-(tetrahydro-thiopyran-4-yloxy)-nicotinamide], in test [1], the midpoint of inhibition, the IC50, lay at 400 pM. In test [1], `COc1ccccc1-c1cc(C(=O)N[C@H]2CC[C@@H](NC(=O)c3cc(F)cnc3OC3CCSCC3)CC2)n[nH]1` [Example 2, Syn-5-Fluoro-N-(4-{[5-(2-methoxy-phenyl)-1H-pyrazole-3-carbonyl]-amino}-cyclohexyl)-2-(tetrahydro-thiopyran-4-yloxy)-nicotinamide] returned an IC50 of 1500 pM. As for `O=C(N[C@H]1CC[C@@H](NC(=O)c2cc(F)cnc2OC2CCSCC2)CC1)c1ccccc1OCCO` [Example 4, Syn-5-Fluoro-N-{4-[2-(2-hydroxy-ethoxy)-benzoylamino]-cyclohexyl}-2-(tetrahydro-thiopyran-4-yloxy)-nicotinamide], the concentration for half-maximal inhibition (IC50) in test [1] was 40 pM; in the test with PDE4, 1500 pM. Consider `O=C(N[C@H]1CC[C@@H](NC(=O)c2cc(F)cnc2OC2CCSCC2)CC1)c1ccc(O)cc1OC1CCCC1` [Example 24, Syn-N-[4-(2-Cyclopentoxy-4-hydroxy-benzoylamino)-cyclohexyl]-5-fluoro-2-(tetrahydro-thiopyran-4-yloxy)-nicotinamide], for which the midpoint of inhibition in test [1], the IC50, lay at 100 pM. As to `COc1ccn2ccnc2c1C(=O)N[C@H]1CC[C@@H](NC(=O)c2cc(F)cnc2OC2CCSCC2)CC1` [Example 3, Syn-7-Methoxy-imidazo[1,2-a]pyridine-8-carboxylic acid(4-{[5-fluoro-2-(tetrahydro-thiopyran-4-yloxy)-pyridine-3-carbonyl]-amino}-cyclohexyl)amide], 20 pM corresponded to half-maximal inhibition in test [1] (IC50). In test [1], `CCOc1cc(O)ccc1C(=O)N[C@H]1CC[C@@H](NC(=O)c2cc(F)cnc2OC2CCSCC2)CC1` [Example 22, Syn-N-[4-(2-Ethoxy-4-hydroxy-benzoylamino)-cyclohexyl]-5-fluoro-2-(tetrahydro-thiopyran-4-yloxy)-nicotinamide] yielded an IC50 of 200 pM. Same read-out and setting: with `COc1ccc(C)cc1S(=O)(=O)N[C@H]1CC[C@@H](NC(=O)c2cccnc2OC2CCSCC2)CC1` [Example 27, Syn-N-[4-(2-methoxy-5-methyl-benzenesulfonylamino)-cyclohexyl]-2-(tetrahydro-thiopyran-4-yloxy)-nicotinamide] the figure was 5000 pM.
